PubChem BioAssay (NCI)
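These data come from cells grown in 96-well plates and exposed to compound for 48 hours at five concentrations. The concentration for 50% growth inhibition is given as GI50. TGI marks complete inhibition of growth.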

Assays:
Experiment in all cases: NCI tumour cell line growth inhibition, 48 h
[1] = system: MDA-MB-435
[2] = system: HS 578T breast
[3] = system: SK-MEL-28 melanoma
[4] = system: ACHN renal
[5] = system: DU-145 prostate
[6] = system: PC-3 prostate
[7] = system: NCI-H226 lung
[8] = system: NCI-H522 lung
[9] = system: DMS 273 small cell lung
[10] = system: DLD-1 colon
[11] = system: P388 leukemia
[12] = system: P388/ADR leukemia

Compound: O=C1OC(c2ccccc2Br)=N/C1=C/c1ccccc1
- TGI [1]: 93.7 µM
- TGI [2]: > 100 µM
- TGI [3]: > 100 µM
- TGI [4]: 77.5 µM
- TGI [5]: > 100 µM
- TGI [6]: > 100 µM
- TGI [7]: 77.9 µM
- TGI [8]: 72.2 µM

Compound: O=C1CCC2COc3ccc(O)c1c32 (stereo unspecified)
- TGI [9]: > 100 µM
- TGI [3]: > 100 µM
- TGI [4]: > 100 µM

Compound: O=c1oc2ccccc2n1P(=O)(Oc1ccc(Cl)cc1)n1c(=O)oc2ccccc21
- TGI [9]: > 100 µM
- TGI [3]: > 100 µM
- TGI [4]: > 100 µM
- TGI [10]: > 100 µM
- TGI [7]: > 100 µM
- TGI [8]: > 100 µM

Compound: COc1nc(NC2OC(CO)C(O)C(O)C2O)c(N)c(=O)[nH]1 (stereo unspecified)
- TGI [9]: > 100 µM
- TGI [3]: > 100 µM
- TGI [10]: > 100 µM
- TGI [11]: > 100 µM
- TGI [7]: > 31.6 µM
- TGI [12]: > 100 µM
- TGI [8]: > 100 µM

Compound: Nc1ncnc2c1ccn2-c1cccc(NC(=O)c2ccc(N3CCOCC3)c(C(F)(F)F)c2)c1
- GI50 [1]: 2.64 µM
- TGI [1]: 13.2 µM
- GI50 [2]: 1.83 µM
- TGI [2]: 6.03 µM
- GI50 [3]: 4.76 µM
- TGI [3]: 23 µM
- GI50 [4]: 2.88 µM
- TGI [4]: 10.5 µM
- GI50 [5]: 3.2 µM
- TGI [5]: 12.1 µM
- GI50 [6]: 2.51 µM
- TGI [6]: 10.4 µM
- GI50 [7]: 3.51 µM
- TGI [7]: 14.3 µM
- GI50 [8]: 1.74 µM
- TGI [8]: 5.2 µM

Compound: COC(=O)Cc1c(C2C(CC(=O)OC)c3ccccc3N2C2OC(CO)C(O)C(O)C2O)[nH]c2ccccc12 (stereo unspecified)
- TGI [1]: > 100 µM
- TGI [3]: > 100 µM
- TGI [5]: > 100 µM
- TGI [6]: > 100 µM
- TGI [8]: > 100 µM

Compound: CC(C)(C)CI
- TGI [9]: 34.8 µM
- TGI [3]: > 100 µM
- TGI [4]: 58.5 µM
- TGI [10]: > 100 µM
- TGI [8]: 45.2 µM

Compound: CC1OC(CO)(n2cnc3c(N)ncnc32)C(O)C1O (stereo unspecified)
- TGI [9]: > 100 µM
- TGI [3]: > 100 µM
- TGI [10]: > 100 µM
- TGI [11]: > 100 µM
- TGI [7]: > 100 µM
- TGI [12]: > 100 µM
- TGI [8]: > 100 µM

Compound: CCCCCCCCCCCCCCCCCCOc1ccccc1COP(=O)(O)OOCC[N+](C)(C)C
- GI50 [1]: 2.65 µM
- TGI [1]: 12.3 µM
- GI50 [2]: 1.18 µM
- TGI [2]: 4.91 µM
- GI50 [3]: 1.59 µM
- TGI [3]: 6.2 µM
- GI50 [4]: 1.45 µM
- TGI [4]: 5.62 µM
- GI50 [5]: 1.88 µM
- TGI [5]: 7.43 µM
- GI50 [6]: 0.824 µM
- TGI [6]: 1.8 µM
- GI50 [7]: 1.16 µM
- TGI [7]: 5.54 µM
- GI50 [8]: 1.73 µM
- TGI [8]: 13.1 µM

Compound: C#CCNC(=O)CC[C@@H](C)[C@H]1CC[C@H]2[C@@H]3CC[C@@H]4CC(=O)CC[C@]4(C)[C@H]3CC[C@]12C
- GI50 [1]: 18.7 µM
- TGI [1]: 60.1 µM
- GI50 [2]: 21.3 µM
- TGI [2]: 77.3 µM
- GI50 [3]: 16.8 µM
- TGI [3]: 36 µM
- GI50 [4]: 14.9 µM
- TGI [4]: 32.4 µM
- GI50 [5]: 14.8 µM
- TGI [5]: 35.1 µM
- GI50 [6]: 2.91 µM
- TGI [6]: 24.2 µM
- GI50 [7]: 14.8 µM
- TGI [7]: 36.2 µM
- GI50 [8]: 3.69 µM
- TGI [8]: 16.6 µM

Compound: NC(CSCSCC(N)C(=O)O)C(=O)O (stereo unspecified)
- TGI [9]: > 225 µM
- TGI [3]: > 225 µM
- TGI [10]: > 225 µM
- TGI [11]: > 71.2 µM
- TGI [7]: > 225 µM
- TGI [12]: > 225 µM
- TGI [8]: > 225 µM
